According to BigSolDB 2.1:

NCC(CC(=O)O)c1ccc(Cl)cc1 (configuration not stated)
solubility (mole fraction)
Conditions	273.15 K	278.15 K	283.15 K	288.15 K	293.15 K	298.15 K	303.15 K	308.15 K	313.15 K	318.15 K
in 1,4-dioxane	–	–	–	0.000519	0.000568	0.000632	0.000704	0.000788	0.000888	0.000996
in 2-butanone	0.000439	0.000475	0.000522	0.000579	0.000639	0.000703	0.000792	0.0009	0.00101	0.00112
in DMAc	0.0934	0.0945	0.0957	0.0969	0.0982	0.0995	0.101	0.102	0.104	0.105
in DMF	0.0998	0.101	0.102	0.104	0.106	0.108	0.11	0.112	0.115	0.117
in acetone	0.000228	0.000236	0.000246	0.000258	0.000273	0.000289	0.000305	0.000322	0.00034	0.000358
in ethanol	1.95e-05	2.23e-05	2.58e-05	3e-05	3.4e-05	3.85e-05	4.33e-05	4.86e-05	5.39e-05	5.86e-05
in ethyl acetate	0.00412	0.00419	0.00427	0.00436	0.00446	0.00456	0.00467	0.00476	0.00488	0.00499
in isopropanol	3.16e-05	3.67e-05	4.17e-05	4.74e-05	5.35e-05	5.99e-05	6.67e-05	7.41e-05	8.21e-05	9.04e-05
in methanol	0.000109	0.000116	0.000124	0.000133	0.000143	0.000153	0.000162	0.000173	0.000186	0.000198
in n-butanol	5.73e-05	6.12e-05	6.61e-05	7.11e-05	7.68e-05	8.34e-05	9.06e-05	9.72e-05	0.000104	0.000113
in n-propanol	2.57e-05	3.01e-05	3.47e-05	4.03e-05	4.61e-05	5.35e-05	6.1e-05	6.85e-05	7.63e-05	8.77e-05
in toluene	0.0054	0.00569	0.00601	0.00639	0.00673	0.00709	0.00749	0.0079	0.00831	0.00866
